From the NIST ThermoML archive (doi:10.1016/j.jct.2005.07.019)

Test: mn = molality of the nth substance listed, in mol/kg
Conditions: 350 kPa, Liquid, Extra sensitive DSC

N[C@H](CO)C(=O)O [(R)-(-)-serine] + O
apparent molar heat capacity [J/K/mol]
Conditions	m1 = 0.0151	m1 = 0.0301	m1 = 0.0501	m1 = 0.08	m1 = 0.1251	m1 = 0.2505	m1 = 0.35
278.15 K	54.5	55.7	56.5	58.3	60.7	66.74	71.19
283.15 K	75.2	76.1	76.8	78.4	80.6	85.06	89.13
288.15 K	91.1	92.2	92.8	94.4	96.3	100.09	103.68
293.15 K	104.3	105.4	106.1	107.6	109.2	112.47	115.73
298.15 K	114.8	116.1	116.8	118.3	119.8	122.69	125.65
303.15 K	123.8	125.6	126.3	127.5	128.8	131.45	134.16
308.15 K	132.3	133.5	134.1	135.4	136.6	138.97	141.5
313.15 K	139.7	140.5	141	142.1	143.3	145.58	147.86
318.15 K	145.3	146.2	146.7	147.9	149	151.1	153.28
323.15 K	150	151.2	151.8	153	154.1	156.06	158.13
328.15 K	155	156	156.5	157.5	158.6	160.5	162.4
333.15 K	159	160.2	160.7	161.7	162.6	164.4	166.3
338.15 K	163	163.7	164.2	165.2	166.2	167.9	169.76
343.15 K	166	167	167.4	168.3	169.2	170.9	172.7
348.15 K	169	170.1	170.4	171.1	172	173.7	175.4
353.15 K	171	172.2	172.6	173.6	174.4	176.1	177.8
358.15 K	174	174.3	174.9	175.8	176.7	178.3	180
363.15 K	176	176.2	176.7	177.7	178.5	180.2	181.8
368.15 K	177	177.8	178.2	179.2	180.1	181.7	183.4
373.15 K	178	179.3	179.6	180.5	181.4	183.1	184.7
378.15 K	180	180.4	180.7	181.6	182.5	184.2	185.8
383.15 K	181	181	181.4	182.4	183.3	185.2	186.8
388.15 K	181	182	182.1	183	184	186	187.4
393.15 K	182	182	182.5	183.5	184.4	186.5	187.9
